Experimental findings from patent US20150290105A1, “COMPOSITION COMPRISING SYRINGARESINOL FOR IMPROVING THE SKIN” (AMOREPACIFIC CORPORATION, priority 2011, published 2015) are described below.

In series [1] the test system is Melanocytes (Mel-Ab cells). The series is described as follows: Test of cytotoxicity (crystal violet cell viability) in mouse melanocytes. The format is cell-based. The settings on record: 24 hours. Here is the method: Cytotoxicity was tested for syringaresinol in mouse melanocytes as follows.
Melanocytes (Mel-Ab cells) derived from C57BL/6 (treated with Dooley et al.'s method) were cultured under the condition of 37° C. and 5% CO2 in Dulbecco's modified Eagle's medium (DMEM) containing 10% fetal bovine serum, 100 nM 12-O-tetradecanoylphorbol-13-acetate and 1 nM cholera toxin. The cultured Mel-Ab cells were detached with 0.25% trypsin-EDTA, cultured in a 24-well plate to a concentration of 10^5 cells/well and then treated with the syringaresinol prepared in Example. After culturing for 24 hours, the cells were washed with phosphate buffered saline (PBS, pH 7.2) and then stained using 0.1% crystal violet (Sigma) and 10% ethanol (EtOH) for 5 minutes at room temperature. After completely removing free crystal violet, the cells were washed 3 times with PBS (pH 7.2). The stained cells were treated with 95% ethanol (EtOH) for 1 hour at room temperature to extract crystal violet. The absorbance of the extract was measured at 540 nm using the Lambda 25 spectrophotometer (PerkinElmer) and cell viability (%) was calculated according to Equation 1.
Cell viability (%)=(A/B)×100 [Equation 1]
A: absorbance in the presence of syringaresinol
B: absorbance in the absence of syringaresinol

In series [2] the test system is Melanocytes (Mel-Ab cells). Nature of the series: Melanin production inhibiting effect in mouse melanocytes. The format is cell-based. The settings on record: Mel-Ab cells, 3 consecutive days; hydroquinone 10 ppm. Here is the method:
The melanin production inhibiting effect of the syringaresinol obtained in Example was evaluated using mouse melanocytes. First, melanocytes (Mel-Ab cells) derived from C57BL/6 (treated with Dooley et al.'s method) were cultured under the condition of 37° C. and 5% CO2 in Dulbecco's modified Eagle's medium (DMEM) containing 10% fetal bovine serum, 100 nM 12-O-tetradecanoylphorbol-13-acetate and 1 nM cholera toxin. […] After removing the culture medium and washing with PBS, the cells were dissolved with 1 N sodium hydroxide and absorbance was measured at 400 nm. Melanin production inhibiting rate (%) was calculated according to Equation 2 from the measured absorbance. Melanin production inhibiting rate (%)=100−(Absorbance of test substance) /(Absorbance of control substance)×100 [Equation 2]

Series [3] relates to mushroom-derived tyrosinase. Nature of the series: Tyrosinase activity inhibiting effect (dopachrome formation). The format is biochemical. To be noted: 10 ppm, 37° C. 10 minutes. As to the method:
The reaction solution was prepared by adding 500 μL of 0.1 M PBS, 15 μg of L-tyrosine and 50 μL of syringaresinol and then adding distilled water to make the final volume 1500 μL. A solution prepared through the same procedure but with Kojic acid instead of syringaresinol was used as a positive control. The concentration of all the samples used in experiment was set to 10 ppm. After adding 10 units of mushroom-derived tyrosinase to the reaction solution, followed by reaction at 37° C. for 10 minutes, the reaction was stopped by quickly transferring onto ice for 5 minutes. The synthesis rate of dopachrome produced was determined by measuring absorbance at 475 nm and tyrosinase activity inhibiting rate (%) was calculated therefrom.

The subject of a further series is interleukin 6 gene. Nature of the series: Interleukin 6 gene expression in keratinocytes (Q-RT-PCR). The format is cell-based. The settings on record: 24 hours, relative to non-treated control. Here is the method: Interleukin 6 (IL-6) is a cytokine secreted by keratinocytes, etc. Increased secretion owing to activation of the IL-6 gene leads to bright skin color and skin tone and suppressed skin pigmentation such as melasma or blemish. It was investigated whether syringaresinol can increase the expression of the IL-6 gene in skin keratinocytes.
Keratinocytes were treated with 10 ppm or 100 ppm syringaresinol. 24 hours later, the cells were recovered and washed twice with 10 mL of PBS. Then, total RNA was isolated from the cells using TRIzol reagent (Invitrogen, Carlsbad, Calif., USA). The isolated RNA was purified once more using the Qiagen RNeasy kit (Qiagen, Valencia, Calif.) and cDNA was synthesized therefrom using the Superscript Reverse Transcriptase (RT) II kit (Invitrogen, Carlsbad, Calif.). Subsequently, the change in the expression of the interleukin 6 gene was quantitatively analyzed by real-time reverse transcription polymerase chain reaction (Q-RT-PCR). The change in the gene expression pattern was evaluated using the TaqMan gene expression assay kit (Applied Biosystems, Forster City, Calif.). Hs00174360_ml was used as a primer. The expression level of interleukin 6 in the cells was analyzed by real-time PCR and was calculated relative to a non-treated control group.

Series [4] is described as follows: Skin whitening effect when orally administered, UV-irradiated brown guinea pig. The settings on record: 1% in feed, 5 weeks, oral. The format is in vivo. As to the method: Minimal erythemal dose was measured after irradiating UV to guinea pigs. After grouping the guinea pigs with 10 per each group, UV of the minimal erythemal dose was irradiated once a day, for a total of 3 times. The guinea pigs were allowed free access to feed for 5 weeks. The feed contained 1% syringaresinol or 1% vitamin C (Vit C) as a positive control. Skin pigmentation was measure using a colorimeter in substantially the same manner as in Test Example 6.

For a further series, the system named is SIRT1. Nature of the series: SIRT1 expression promoting effect in human fibroblasts. The series is classed as cell-based. The settings on record: HDF cells, 20, 50 or 100 μM, 24 hours, FIG. 4. As to the method: Human keratinocyte HaCaT cells or human fibroblast HDF cells were cultured under the condition of 37° C. and 5% CO2 in DMEM ((Gibco 1210-0038)) containing 10% fetal bovine serum.
The cultured cells were treated with syringaresinol dissolved in DMSO at a concentration of 20, 50 or 100 μM for 24 hours. Separately from this, the cells were treated with DMSO of 1/1000 of the volume of the culture medium as a negative control. After treating with the test substance, the cells were washed twice with cold PBS and RNA was extracted using TRIzol reagent (Invitrogen). Then, cDNA was synthesized using 1 μg/μL of the extracted RNA and a reverse transcription system (Promega). The expression pattern of the SIRT1 and GAPDH genes was monitored using the synthesized cDNA and predesigned primers and probes (Applied Biosystems; SIRT1, Hs01009006_ml; GAPDH, Hs99999905_ml). PCR reaction and analysis were carried out using the Rotor-Gene 3000 system (Corbett Research, Sydney, Australia). The result is shown in FIG. 3 (keratinocytes) and FIG. 4 (fibroblasts).

In the next series the test system is filaggrin. The series is described as follows: Filaggrin expression promoting effect in human keratinocytes. The format is cell-based. The settings on record: HaCaT cells, FIG. 5. Here is the method: Human keratinocyte HaCaT cells were cultured in substantially the same manner as in Test Example 10.
cDNA was synthesized in substantially the same manner as in Test Example 10 and the expression pattern of the filaggrin, involucrin and GAPDH genes was monitored substantially the same manner as in Test Example 10 using the synthesized cDNA and predesigned primers and probes (Applied Biosystems; […]; GAPDH, Hs99999905_ml).

For the molecule `COc1cc(C2OCC3C(c4cc(OC)c(O)c(OC)c4)OCC23)cc(OC)c1O` (centres unmarked) [Syringaresinol, syringaresinol], the “Cell viability (%)” value in series [1] is given as 98.6%. For the same molecule, the “Melanin production inhibiting rate (%)” value in series [2] is reported as 85.7%. For the same molecule, in series [3], the “Tyrosinase activity inhibiting rate (%)” value is 90.2%. Further, the “Expression of IL-6 gene” value with interleukin 6 gene (10 ppm) was 3.5; with interleukin 6 gene (100 ppm), 8.2. For the same molecule, the “Skin color brightness (ΔL*)” value in series [4] is reported as 1.67 ± 0.25. In addition, the “Increase of SIRT1 expression” value with SIRT1 is listed as ≥ 4 times. Further, the Expression of filaggrin result in the series on filaggrin is listed as “increases the expression of filaggrin”.
